Laboratory results reported in patent US12655153B2, “Solid forms of a HBV core protein allosteric modifier” (Hoffmann-La Roche Inc., priority 2019, dated 2026).
In brackets after ≈: the same amount, converted by molar mass. Entries after “also recorded” stand apart in the source; their conditions may differ. Each block holds one compound with its values, some of them ahead of it.

Assays:
[1] = Stability of solid forms, stability chamber 40° C. and 75%-RH, XRPD after 1 month; format: physicochemical; settings: 40° C./75%-RH
Protocol: 40 mg of compound (I) in different solid forms were stored in a stability chamber with temperature and humidity controlled at 40° C. and 75%-RH, respectively. After 1 month, the samples were analyzed by XRPD to check their solid form and compared with their initial solid form.

[2] = Apparent solubility study in pH buffers (50 mM), 25° C., 24 hours, HPLC; format: physicochemical; settings: for Solubility: 25° C.; for Final pH: after 24 hours; for Solubility compared with Form A: pH7 and pH9
Protocol: Apparent solubility was determined by suspending 5 mg of compound (I) in different bio-relevant media including pH buffers (50 mM). The suspensions were equilibrated at 25° C. for 24 hours. The suspensions were then filtered through a 0.22 μm PVDF filter into a 2-mL HPLC vial. The quantification of the filtrate was conducted by HPLC with reference to a standard solution.

In vivo PK study = assay: In vivo PK study
Text: (§1) Therefore, sodium salt Form J is suitable to be formulated as sustained-release oral formulation. […] Therefore, sodium salt Form J could be developed as enteric release formulations to avoid conversion in SGF and achieve higher solubility in intestinal environment for better absorption.

[3] = Conversion of solid form in SGF; format: physicochemical
Text: as §1

[4] = Apparent solubility in FaSSIF over time; format: physicochemical
Text: as §1

[5] = Physical stability of solid forms (general statements, accelerated and long term stability testing); format: physicochemical; settings: conditions not stated
Text: Developing novel forms of compound (I) with good processability or acceptable aqueous solubility is one of the objectives of current invention. Some novel solid forms enhance the developability of compound (I) fundamentally. The physical stability of drug substances is an integral part of the systematic approach to the stability evaluation of pharmaceuticals due to its potential impacts on drug chemical stability performance and safety. The greater the stability is, the longer the shelf life could be. Therefore, the accelerated and long term stability testing used in this invention could be used to predict shelf lives.

[6] = Stability of solid forms, stability chamber 25° C. and 60%-RH, XRPD after 1 month; format: physicochemical; settings: 25° C./60%-RH
Protocol: 20 mg of compound (I) in different solid forms were stored in a stability chamber with temperature and humidity controlled at 25° C. and 60%-RH. After 1 month, the samples were analyzed by XRPD to check their solid form and compared with their initial solid form.

[7] = Apparent solubility in purified water, 25° C., 24 hours, HPLC, residue by XRPD; format: physicochemical; settings: for Solubility / Final pH / XRPD of residue: purified water; for Solubility: 25° C., 24 hours; for Final pH / XRPD of residue: after 24 hours
Protocol: Apparent solubility in water was determined by suspending 5 mg of compound (I) in purified water. The suspensions were equilibrated at 25° C. for 24 hours. The suspensions were then filtered through a 0.22 μm PVDF filter into a 2-mL HPLC vial. The quantitation of the filtrate was conducted by HPLC with reference to a standard solution. The solids were analyzed by XRPD.

[8] = listed as Example 16, Form H of compound (I)
[9] = listed as Example 3, Form A of compound (I)
[10] = listed as Example 1, Form D of compound (I)

Physical stability (solid form by XRPD) ([1]; listed as Example 15, sodium salt Form J of compound (I)): no solid form change
Solubility ([2]; pH 1 buffer, 24 hours, listed as Example 15, sodium salt Form J of compound (I)): 1.51 mg/mL
Final pH ([2]; pH 1 buffer, listed as Example 15, sodium salt Form J of compound (I)): 1.12
Solubility ([2]; pH 3 buffer, 24 hours, listed as Example 15, sodium salt Form J of compound (I)): 0.016 mg/mL
Final pH ([2]; pH 3 buffer, listed as Example 15, sodium salt Form J of compound (I)): 3.53
Solubility ([2]; pH 5 buffer, 24 hours, listed as Example 15, sodium salt Form J of compound (I)): 0.0028 mg/mL
Final pH ([2]; pH 5 buffer, listed as Example 15, sodium salt Form J of compound (I)): 5.22
Solubility ([2]; pH 7 buffer, 24 hours, listed as Example 15, sodium salt Form J of compound (I)): 0.69 mg/mL
Final pH ([2]; pH 7 buffer, listed as Example 15, sodium salt Form J of compound (I)): 7.34
Solubility ([2]; pH 9 buffer, 24 hours, listed as Example 15, sodium salt Form J of compound (I)): >10 mg/mL
Final pH ([2]; pH 9 buffer, listed as Example 15, sodium salt Form J of compound (I)): 8.80
Solid form conversion [3]: converted to HCl salt immediately
Apparent solubility in FaSSIF [4]: increased with time
Physical / solid state stability ([5]; listed as sodium salt Form J): improved stability compared with Form D
Compound: CCOC(=O)C1=C(CN2CCN3C(=O)N(CC(C)(C)C(=O)O)C[C@@H]3C2)NC(c2nccs2)=N[C@H]1c1cccc(F)c1C [Form J, 3-[(8aS)-7-[[(4S)-5-ethoxycarbonyl-4-(3-fluoro-2-methyl-phenyl)-2-thiazol-2-yl-1,4-dihydropyrimidin-6-yl]methyl]-3-oxo-5,6,8,8a-tetrahydro-1H-imidazo[1,5-a]pyrazin-2-yl]-2,2-dimethyl-propanoic acid]
Solid form stability compared with Form D [1]: better solid form stability than the original Form D
Solubility compared with other crystal forms of the parent compound (I) [2]: improved solubility compared with some of other crystal forms
Solubility compared with Form A [2]: higher solubility than Form A at pH7 and pH9
Absorption rate to reach Cmax (In vivo PK study): much slower absorption rate to reach Cmax

Solubility ([2]; pH 1 buffer, 24 hours, listed as Example 24, potassium salt Form Q of compound (I)): 1.56 mg/mL
Final pH ([2]; pH 1 buffer, listed as Example 24, potassium salt Form Q of compound (I)): 1.1
Final pH ([2]; pH 3 buffer, listed as Example 24, potassium salt Form Q of compound (I)): 3.49
Final pH ([2]; pH 5 buffer, listed as Example 24, potassium salt Form Q of compound (I)): 5.17
Solubility ([2]; pH 7 buffer, 24 hours, listed as Example 24, potassium salt Form Q of compound (I)): 3.58 mg/mL
Final pH ([2]; pH 7 buffer, listed as Example 24, potassium salt Form Q of compound (I)): 6.97
Solubility ([2]; pH 9 buffer, 24 hours, listed as Example 24, potassium salt Form Q of compound (I)): >10 mg/mL
Final pH ([2]; pH 9 buffer, listed as Example 24, potassium salt Form Q of compound (I)): 8.71
Compound: CCOC(=O)C1=C(CN2CCN3C(=O)N(CC(C)(C)C(=O)O)C[C@@H]3C2)NC(c2nccs2)=N[C@H]1c1cccc(F)c1C [Form Q, 3-[(8aS)-7-[[(4S)-5-ethoxycarbonyl-4-(3-fluoro-2-methyl-phenyl)-2-thiazol-2-yl-1,4-dihydropyrimidin-6-yl]methyl]-3-oxo-5,6,8,8a-tetrahydro-1H-imidazo[1,5-a]pyrazin-2-yl]-2,2-dimethyl-propanoic acid]

Physical stability (solid form by XRPD) [6, 8]: no solid form change
Solubility ([2]; pH 1 buffer, 24 hours, listed as Example 16, Form H of compound (I)): 1.581 mg/mL (≈ 2640 µM)
Final pH ([2]; pH 1 buffer, listed as Example 16, Form H of compound (I)): 1.08
Solubility ([2]; pH 3 buffer, 24 hours, listed as Example 16, Form H of compound (I)): 0.056 mg/mL (≈ 93.5 µM)
Final pH ([2]; pH 3 buffer, listed as Example 16, Form H of compound (I)): 3.01
Solubility ([2]; pH 5 buffer, 24 hours, listed as Example 16, Form H of compound (I)): 0.006 mg/mL (≈ 10 µM)
Final pH ([2]; pH 5 buffer, listed as Example 16, Form H of compound (I)): 5.03
Solubility ([2]; pH 7 buffer, 24 hours, listed as Example 16, Form H of compound (I)): 0.244 mg/mL (≈ 408 µM)
Final pH ([2]; pH 7 buffer, listed as Example 16, Form H of compound (I)): 6.97
Solubility ([2]; pH 9 buffer, 24 hours, listed as Example 16, Form H of compound (I)): >10 mg/mL
Final pH ([2]; pH 9 buffer, listed as Example 16, Form H of compound (I)): 8.90
Solubility [7, 8]: 0.453 mg/mL (≈ 757 µM)
Final pH [7, 8]: 7.35
XRPD of residue [7, 8]: Form H
Compound: CCOC(=O)C1=C(CN2CCN3C(=O)N(CC(C)(C)C(=O)O)C[C@@H]3C2)NC(c2nccs2)=N[C@H]1c1cccc(F)c1C [Form H, 3-[(8aS)-7-[[(4S)-5-ethoxycarbonyl-4-(3-fluoro-2-methyl-phenyl)-2-thiazol-2-yl-1,4-dihydropyrimidin-6-yl]methyl]-3-oxo-5,6,8,8a-tetrahydro-1H-imidazo[1,5-a]pyrazin-2-yl]-2,2-dimethyl-propanoic acid]
Stability compared with Form D [6]: better stability than the original Form D
Solubility compared with Form A [2]: higher solubility than Form A at pH7 and pH9
Water solubility compared with Form A ([7]; water): unexpected higher water solubility than Form A; also recorded: significant higher water solubility than the anhydrate Form A
Physical / solid state stability [5]: improved stability compared with Form D; also recorded: acceptable solid state stability

Compound: CCOC(=O)C1=C(CN2CCN3C(=O)N(CC(C)(C)C(=O)O)C[C@@H]3C2)NC(c2nccs2)=N[C@H]1c1cccc(F)c1C [Form Amorphous, 3-[(8aS)-7-[[(4S)-5-ethoxycarbonyl-4-(3-fluoro-2-methyl-phenyl)-2-thiazol-2-yl-1,4-dihydropyrimidin-6-yl]methyl]-3-oxo-5,6,8,8a-tetrahydro-1H-imidazo[1,5-a]pyrazin-2-yl]-2,2-dimethyl-propanoic acid]
Physical / solid state stability [5]: significantly improved stability compared with Form D

solubility at 24 h ([2]; pH 1 buffer (50 mM), 25 °C, pH 1, aqueous buffer, thermodynamic from solid, pH 1 buffer, 24 hours): 940 µg/mL (≈ 1570 µM)
Final pH ([2]; pH 1 buffer, listed as Example 3, Form A of compound (I)): 1.05
Solubility ([2]; pH 3 buffer, 24 hours, listed as Example 3, Form A of compound (I)): 0.066 mg/mL (≈ 110 µM)
Final pH ([2]; pH 3 buffer, listed as Example 3, Form A of compound (I)): 2.97
Solubility ([2]; pH 5 buffer, 24 hours, listed as Example 3, Form A of compound (I)): 0.004 mg/mL (≈ 6.68 µM)
Final pH ([2]; pH 5 buffer, listed as Example 3, Form A of compound (I)): 4.99
Solubility ([2]; pH 7 buffer, 24 hours, listed as Example 3, Form A of compound (I)): 0.072 mg/mL (≈ 120 µM)
Final pH ([2]; pH 7 buffer, listed as Example 3, Form A of compound (I)): 6.98
Solubility ([2]; pH 9 buffer, 24 hours, listed as Example 3, Form A of compound (I)): 4.82 mg/mL (≈ 8050 µM)
Final pH ([2]; pH 9 buffer, listed as Example 3, Form A of compound (I)): 8.46
Solubility [7, 9]: 0.05 mg/mL (≈ 83.5 µM)
Final pH [7, 9]: 6.97
XRPD of residue [7, 9]: Form A
Compound: CCOC(=O)C1=C(CN2CCN3C(=O)N(CC(C)(C)C(=O)O)C[C@@H]3C2)NC(c2nccs2)=N[C@H]1c1cccc(F)c1C [Form A, 3-[(8aS)-7-[[(4S)-5-ethoxycarbonyl-4-(3-fluoro-2-methyl-phenyl)-2-thiazol-2-yl-1,4-dihydropyrimidin-6-yl]methyl]-3-oxo-5,6,8,8a-tetrahydro-1H-imidazo[1,5-a]pyrazin-2-yl]-2,2-dimethyl-propanoic acid]

Physical stability (solid form by XRPD) [1, 10]: solid form change
Physical stability (solid form by XRPD) [6, 10]: solid form change
Physical / solid state stability [5]: physically unstable
Compound: CCOC(=O)C1=C(CN2CCN3C(=O)N(CC(C)(C)C(=O)O)C[C@@H]3C2)NC(c2nccs2)=N[C@H]1c1cccc(F)c1C [Form D, 3-[(8aS)-7-[[(4S)-5-ethoxycarbonyl-4-(3-fluoro-2-methyl-phenyl)-2-thiazol-2-yl-1,4-dihydropyrimidin-6-yl]methyl]-3-oxo-5,6,8,8a-tetrahydro-1H-imidazo[1,5-a]pyrazin-2-yl]-2,2-dimethyl-propanoic acid]
Solid form stability compared with Form D [1]: better solid form stability than the original Form D
